How the values were obtained:
BT-474 = assay: WST-1 proliferation assay, BT-474; type: cell-based; settings: Homo sapiens; Breast BT-474, 72 h; read-out: Anti-proliferative activity IC50 (μM) ± SD
Description: (§1) Several cancer cell lines were used: breast cancer cells (MDA-MB-231 (ATTCC® Number HTB-26™), MDA-MB-436 (ATTCC® Number HTB-130™), MDA-MB-438, BT-474 (ATTCC® Number HTB-20™)); cervical cancer cells (HeLa (ATTCC® Number CCL-2™)); colon cancer cells (HCT-116 (ATTCC® Number CCL-247™) and HT-29 (ATTCC® Number HTB-38™)); osteosarcoma cells (U2OS (ATTCC® Number HTB-96™)); pancreas cancer cells (MIA PaCa-2 (ATTCC® Number CRL-1420™) and Panc-10.5 (ATTCC® Number CRL-2547™)); prostate cancer cells (PC-3 (ATTCC® Number CRL-1435™) and LNCaP (ATTCC® Number CRL-1740™)); brain cancer cells (U87 glioblastoma (ATTCC® Number HTB-14™) and SH-SYSY neuroblastoma (ATTCC® Number CRL-2266™)). […]
(§2) After observation of cells under the microscope, old media were removed and the adherent cells washed gently twice with PBS (Phosphate Buffer Saline, —Ca^2+, —Mg^2+, Lonza cat no: 17-512F/12). […] 50 μl of this solution were transferred in 20 μl of isotonic solution and the cells were counted by count cellular (Beckman Coulter). […]
(§3) The cell proliferation WST-1 assay is a colorimetric assay for the quantification of cell proliferation and viability, based on the enzymatic cleavage of the tetrazolium salt WST-1 added to the culture medium, to a water soluble colored formazan dye, detected by absorbance at 450 nm, by mitochondrial succinate-tetrazolium reductase in viable cells. […]

HCT-29 = assay: WST-1 proliferation assay, HCT-29; type: cell-based; settings: Homo sapiens; Colon HCT-29, 72 h; read-out: Anti-proliferative activity IC50 (μM) ± SD
Description: as §1, §2, §3

DAUDI = assay: WST-1 proliferation assay, DAUDI; type: cell-based; settings: Homo sapiens; Burkitt's lymphoma DAUDI; read-out: Anti-proliferative activity IC50 (μM) ± SD
Description: (§4) All the cancer cell lines were maintained in cultured in DMEM GlutaMAX™ (GIBCO Invitrogen, France, cat no 31966047) enhanced with 10% foetal bovine serum (GIBCO Invitrogen, France, cat no 10270-106) and 1% penicillin G/streptomycin (GIBCO Invitrogen, France, cat no 15140-122). Only Panc-10.5 cells were cultivated in RPMI 1640 medium (Gibco) supplemented with 2 mM L-glutamine, 1.5 g/L sodium bicarbonate, 4.5 g/L glucose, 10 mM HEPES, 1 mM sodium pyruvate, 10 Units/ml human insulin, […] (SVF): 15% (75 ml in 500 ml of medium).
(§5) Cells were grown as subconfluent monolayer and cultured in 75 cm^2 flasks at 37° C., 5% CO2 in a humidified atmosphere, and medium was changed every two days. […]
as §3
(§6) After an incubation period of 72 h, at day 4, were prepared the 19 ml medium with reagent WST-1 1 ml ([…]). […] The cells were incubated at 37° C. in a humidified atmosphere of 5% CO2 for 1 h 30 and the absorbance at 450-655 nm was measured by Microplate Manager 5.2 (Bio-Rad).

ERY-1 = assay: WST-1 proliferation assay, ERY-1; type: cell-based; settings: Homo sapiens; Erythroleukemia ERY-1; read-out: Anti-proliferative activity IC50 (μM) ± SD
Description: as §4, §5, §3, §6

cancer cell lines = assay: wst-1 cytotoxic test, all tested cancer cell lines; type: cell-based, Human; settings: breast, colon, pancreas, cervical, prostate or brain cancer or osteosarcoma
Description: as §1, §2, §3

MDA-MB-438 = assay: WST-1 proliferation assay, MDA-MB-438; type: cell-based; settings: Homo sapiens; MDA-MB-438, 0.05 μM

Row | SMILES | IC50 (BT-474) | IC50 (HCT-29) | IC50 (DAUDI) | IC50 (ERY-1) | cytotoxicity for all the tested cancer cell lines (cancer cell lines) | inhibition at 0.05 µM (MDA-MB-438)
1 | Cc1ccc(-c2nc3ccccc3[nH]2)cc1NC(=S)NC(=O)c1ccc2c(c1)OCCO2 [Compound 1, N-[5-(1H-benzimidazol-2-yl)-2-methylphenyl]-N′-(2,3-dihydro-1,4-benzodioxin-6-ylcarbonyl)thiourea] | 2 µM | 0.5 ± 0.05 µM | 1 µM | 0.3 ± 0.04 µM | cytotoxic for all the tested cancer cell lines | 2%
2 | O=C(NC(=S)Nc1cccc(-c2nc3ccccc3[nH]2)c1)c1ccc2c(c1)OCCO2 [Compound 2, N-[3-(1H-benzimidazol-2-yl)phenyl]-N′-(2,3-dihydro-1,4-benzodioxin-6-ylcarbonyl)thiourea] | 1.6 ± 0.06 µM | 0.1 ± 0.01 µM | 0.5 ± 0.02 µM | 0.1 ± 0.05 µM | cytotoxic for all the tested cancer cell lines | 13%

Reference: patent US20130041005A1, “PHARMACEUTICAL COMPOSITIONS COMPRISING NEUROPILIN INHIBITORS, AND THEIR USE FOR THE PREVENTION AND/OR TREATMENT OF ANGIOGENIC DISORDERS AND CANCERS” (TRAGEX PHARMA, priority 2011, published 2013)
